As usually defined, the viability, T/C is the result in the treated group divided by that in the control group, in per cent. The IC50 is the concentration at which inhibition is half-maximal.

Several values for one entry are separate records, joined by “and”; a condition that tells them apart may be missing. Equal values may be shown once.

The experiment has as its system 677734-321-R-J1-PDC complex spheroid viability. The experiment can be described thus: Anticancer human tumor 677734-321-R-J1-PDC patient-derived soft tissue sarcoma cell line growth inhibition [POLQ]. The settings on record: for viability, T/C: stronger effect = lower value. Here is the method:
Multicellular complex tumor spheroid response to Polymerase (POL) inhibitors (novobiocin, ART-558, RP6685) in combination with a variety of drugs and investigational agents in selected tumor cell lines
The POL inhibitors (novobiocin, ART-558, and RP6685) were evaluated both individually and in combination with standard of care and investigational anticancer small molecules within a complex spheroid model of solid tumors. . Complex spheroids include a stromal component modeled by human endothelial cells (HUVEC) and fibroblasts modeled by human mesenchymal stem cells (MSCs). The concentration ranges selected for each drug and investigational agent were based upon clinically achievable concentrations if the clinical Cmax of the agent was known.
Compounds. The drugs and investigational agents: novobiocin (NSC847541), ART-558 (NSC835418), RP-6685 (NSC848927), peposertib (NSC802822), ceralasertib (NSC780249), elimusertib (NSC800525), camonsertib (NSC841442), AZD-1390 (NSC803789), olaparib (NSC753686), talazoparib (NSC767125), rucaparib (NSC756644), sotorasib (NSC818433), MRTX-1133 (NSC836407), SN-38 (NSC673596), topotecan (NSC609699), epotoside (NSC141540), doxorubicin (NSC123127), gemcitabine (NSC613327), 5-fluorouracil (NSC19893), paclitaxel (NSC125973), vemurafenib (NSC761431), MSA-2 (NSC828583), SN-011 (NSC837082), adavosertib (NSC754352), prexasertib (NSC758257), carboplatin (NSC241240) and oxaliplatin (NSC266046), were obtained from the National Cancer Institute (NCI) Developmental Therapeutics Program Chemical Repository (21). The FDA-approved anticancer drug set is available from the Developmental Therapeutics Program at https://dtp.cancer.gov/organization/dscb/obtaining/. […] The stock solutions were prepared in dimethyl sulfoxide (DMSO, Sigma-Aldrich, St. Louis, MO, cat. D2650), except for the platinum compounds which were prepared in saline (Quality Biological, Gaithersburg, MD, cat. 114-055-101), at 800-fold the tested concentration and stored at -70 degrees C prior to their use. All drugs and investigational agents were tested over a range starting from a high concentration at or near the clinical Cmax and decreasing in half-log increments. If the clinical Cmax for an agent had not been determined, the highest concentration tested was 10 microM, except for SN-38, which was tested at a high concentration of 1 microM.
Cell Culture. All cells were maintained in an incubator at 37 degrees C and 5% CO2 with 95% humidity. The PDC lines were cultured according to standard operating procedures established by the NCI PDMR (https://pdmr.cancer.gov). Table 3 of the manuscript, lists the cell lines along with the number of the three cell types plated to form the mct-spheroids and media for tumor cell growth. After thawing, all PDC lines, except 997537-175-T-J1-PDC and 415267-285-R-J2-PDC, were cultured in Matrigel-coated flasks prepared with a working solution of 1X Ham's F-12 nutrient mix, without supplementation (Thermo Fisher Scientific, cat. 11765054), 100 U/mL penicillin-streptomycin (Thermo Fisher Scientific, cat. 15140122), and 2.5% Matrigel (Corning Inc., Corning, NY, cat. 354248) for the first three passages. The two PDC lines 997537-175-T-J1-PDC and 415267-285-R-J2-PDC were cultured on uncoated flasks. The 857933-349-R-J2-PDC line was cultured in 6C/Colon 1B media containing advanced DMEM/F-12 (Thermo Fisher Scientific, cat. 12634028), 10 mM HEPES (Thermo Fisher Scientific, cat. 15630080), 1X GlutaMAX supplement (Thermo Fisher Scientific, cat. 35050061), 0.1 mg/mL primocin (InvivoGen, San Diego, CA, cat. ant-pm-2), 10% defined fetal bovine serum, heat inactivated (HyClone Laboratories Inc., Logan, UT, cat. SH30070.03HI), 50% L-WRN conditioned media (ATCC, cat. CRL-3276), 1.25 mM N-Acetyl-L-cysteine (Sigma-Aldrich, cat. A9165), 10 mM nicotinamide (Sigma-Aldrich, cat. N0636), 1X B-27 supplement (Thermo Fisher Scientific, cat. 17504044), 1X N-2 supplement (Thermo Fisher Scientific, cat. […]
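Further: spheroids exposed to compounds for one week.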

In the case of `O=C(c1cc(Cc2n[nH]c(=O)c3ccccc23)ccc1F)N1CCN(C(=O)C2CC2)CC1`, the viability, T/C reads like this: (compound 0.0316 µM) 102% and 15.6% and 95.7%; (compound 0.1 µM) 100% and 20.2% and 94.9%; (compound 0.316 µM) 104% and 16.8% and 106%; (compound 1 µM) 105% and 20.7% and 100%; (compound 3.16 µM) 97.5% and 14.8% and 101%; (compound 10 µM) 77.8% and 12.2% and 58.9%.
`CCCS(=O)(=O)Nc1ccc(F)c(C(=O)c2c[nH]c3ncc(-c4ccc(Cl)cc4)cc23)c1F` + Nc1ccc(C#CCN(C(=O)Cc2ncc(C(F)(F)F)cc2C(F)(F)F)c2ccc(F)cc2)nn1: the IC50 came to 5.07 µM (curve of first compound, second compound 0.0316 µM); 5.35 µM (curve of first compound, second compound 0.1 µM); 5.46 µM (curve of first compound, second compound 0.316 µM); 4.5 µM (curve of first compound, second compound 1 µM); 4.29 µM (curve of first compound, second compound 3.16 µM); 4.7 µM (curve of first compound, second compound 10 µM). The viability, T/C is 96.6% (second compound 0.0316 µM, first compound 0.0316 µM); 106% (second compound 0.0316 µM, first compound 0.1 µM); 97.2% (second compound 0.0316 µM, first compound 0.316 µM); 104% (second compound 0.0316 µM, first compound 1 µM); 80% (second compound 0.0316 µM, first compound 3.16 µM); 7% (second compound 0.0316 µM, first compound 10 µM). The viability, T/C is 107% (second compound 0.1 µM, first compound 0.0316 µM); 109% (second compound 0.1 µM, first compound 0.1 µM); 87.5% (second compound 0.1 µM, first compound 0.316 µM); 98.9% (second compound 0.1 µM, first compound 1 µM); 86.8% (second compound 0.1 µM, first compound 3.16 µM); 6.32% (second compound 0.1 µM, first compound 10 µM). Moreover, the viability, T/C (second compound 0.316 µM, first compound 0.0316 µM) is 99%; the viability, T/C (second compound 0.316 µM, first compound 0.1 µM) was 101%; the viability, T/C (second compound 0.316 µM, first compound 0.316 µM) is 102%; the viability, T/C (second compound 0.316 µM, first compound 1 µM) is 108%; the viability, T/C (second compound 0.316 µM, first compound 3.16 µM) is 87.9%; the viability, T/C (second compound 0.316 µM, first compound 10 µM) was 7.94%. The viability, T/C runs as follows: (second compound 1 µM, first compound 0.0316 µM) 107%; (second compound 1 µM, first compound 0.1 µM) 103%; (second compound 1 µM, first compound 0.316 µM) 107%; (second compound 1 µM, first compound 1 µM) 98.6%; (second compound 1 µM, first compound 3.16 µM) 68%; (second compound 1 µM, first compound 10 µM) 9.46%. The viability, T/C by setting is: (second compound 3.16 µM, first compound 0.0316 µM) 121%; (second compound 3.16 µM, first compound 0.1 µM) 110%; (second compound 3.16 µM, first compound 0.316 µM) 102%; (second compound 3.16 µM, first compound 1 µM) 96.6%; (second compound 3.16 µM, first compound 3.16 µM) 67.2%; (second compound 3.16 µM, first compound 10 µM) 5.17%. Besides, the viability, T/C runs as follows: (second compound 10 µM, first compound 0.0316 µM) 96.8%; (second compound 10 µM, first compound 0.1 µM) 105%; (second compound 10 µM, first compound 0.316 µM) 96.1%; (second compound 10 µM, first compound 1 µM) 113%; (second compound 10 µM, first compound 3.16 µM) 73.2%; (second compound 10 µM, first compound 10 µM) 5.45%.
In the case of `CCc1c2c(nc3ccc(O)cc13)-c1cc3c(c(=O)n1C2)COC(=O)[C@]3(O)CC`, the viability, T/C (compound 0.00316 µM) was 29.6% and 21.7% and 23.7%; the viability, T/C (compound 0.01 µM) was 13.3% and 10.5% and 14.2%; the viability, T/C (compound 0.0316 µM) was 5.51% and 5.68% and 5.45%; the viability, T/C (compound 0.1 µM) was 3.41% and 4.83% and 3.66%; the viability, T/C (compound 0.316 µM) is 1.89% and 3.99%; the viability, T/C (compound 1 µM) is 1.68% and 1.7% and 1.87%. Besides, for the setting “curve of compound”, the IC50 is less than 0.00316 µM.

Values taken from PubChem BioAssay AID1963842 (Molecular Pharmacology Branch, DTP, NCI, 2024).
